Measurements: US11717509B2, “Blend containing carbamate compound for prevention, mitigation, or treatment of schizophrenia” (SK BIOPHARMACEUTICALS CO., LTD., priority 2017, dated 2023)

System: animal model in which schizophrenia-like symptoms were induced by treatment with dizocilpine (MK-801)
Experiment: Social interaction animal behavior test in rats with schizophrenia-like symptoms induced by dizocilpine (MK-801)
Format: in vivo, rat (Wistar, male)
Conditions: for Social interaction (Mean ± SEM) = total time of active social interactions of sniffing, grooming, licking, mounting and crawling: male Wistar rats in pairs, 5 min observation, dizocilpine 0.1 mg/kg sc 4 h before, aripiprazole 0.003 mg/kg po and/or test compound 3 mg/kg po 1 h before, 20 pairs; for total time average of active social interactions: mean±SEM, aripiprazole 0.003 mg/kg and/or test compound 3 mg/kg po; for total time average of active social interactions / Recovery rate compared to negative control: dizocilpine 0.1 mg/kg sc; for Statistical significance compared to negative control (P < 0.05?) / Statistical significance compared to positive control (P < 0.05?): one-way ANOVA, Dunnett's test; for Statistical significance compared to negative control (P < 0.05?): negative control = dizocilpine only; for Statistical significance compared to negative control (P < 0.05?) / Statistical significance compared to positive control (P < 0.05?) / Recovery rate compared to negative control: aripiprazole 0.003 mg/kg po and/or test compound 3 mg/kg po; for Statistical significance compared to positive control (P < 0.05?): positive control = vehicle group; for Recovery rate compared to negative control: versus dizocilpine-only negative control and vehicle positive control
Source text: The antipsychotic activity of the carbamate compounds of Formula 1 and aripiprazole against schizophrenia can be tested through social interaction animal behavior tests used in drug development for the negative symptoms of schizophrenia (Neill J C, Grayson B, Kiss B, Gyertyán I, Ferguson P, Adham N, Effects of cariprazine, a novel antipsychotic, on cognitive deficit and negative symptoms in a rodent model of schizophrenia symptomatology, Eur Neuropsychopharmacol. 2016 January; 26(1):3-14). […] Dizocilpine (MK-801) is an N-methyl-D-aspartate (NMDA) receptor inhibitor. In the dizocilpine-induced (MK-801-induced) social interaction animal behavior test, schizophrenia-like symptoms can be induced by administration of dizocilpine (Rung J P, Carlsson A, Ryden Markinhuhta K, Carlsson M L, (+)-MK-801 induced social withdrawal in rats; a model for negative symptoms of schizophrenia. Prog Neuropsychopharmacol Biol Psychiatry. 2005 June; 29(5):827-32). Aripiprazole, known as an atypical antipsychotic drug, inhibits schizophrenia-like symptoms in proportion to the dose of dizocilpine (Deiana S, Watanabe A, Yamasaki Y, Amada N, Kikuchi T, Stott C, Riedel G, MK-801-induced deficits in social recognition in rats: reversal by aripiprazole, but not olanzapine, risperidone, or cannabidiol. Behav Pharmacol. 2015 December; 26 (8 Spec No): 748-65).
Male rats (Wistar, 4 weeks old, Orient Bio Co., Ltd.) were purchased, divided into 2 groups in an animal breeding room and acclimatized for more than 1 week on separate shelves. The experimental animals were housed and maintained in accordance with the Laboratory Animal Care Standards of the Institutional Animal Care and Use Committee (IACUC) under conditions of light-and-darkness cycle of 12 hours, a temperature of 22 to 25° C., a relative humidity of 40-60% and free access to food and water.
Thus, an animal model is used in which schizophrenia-like symptoms can be induced by treatment of dizocilpine, an N-methyl-D-aspartate (NMDA) receptor inhibitor.
Dizocilpine (purchased from Sigma) was newly prepared by dissolving it in physiological saline used as a vehicle, and 4 hours before the experiment, a 0.1 mg/kg dose was administered subcutaneously in a volume of 1 ml per 1 kg of body weight of the rat.
Aripiprazole and the test compound were newly prepared by dissolving them in 30% polyethylene glycol 400 (Sigma) used as a vehicle. One hour before the experiment, a 0.003 mg/kg dose of aripiprazole and a 3 mg/kg dose of the test compound were administered orally in a volume of 1 ml per 1 kg of body weight of the rat.
The male rats were placed in the same observation box in pairs, allowing 1:1 interaction, and then the total time of sniffing, grooming, licking, mounting and crawling under or over the other rat which can be considered as active social interactions was measured for 5 minutes, and social interaction was evaluated based on that.
All data are expressed as mean±SEM. Statistical analysis of the total time of active social interactions between groups was performed using the GraphPad Prism ver. 5.04 program, and analyzed by one-way ANOVA (one-way analysis of variance) and Dunnett's multiple comparison test.
The recovery rate was calculated as follows.

Row | SMILES | Social interaction (Mean ± SEM) = total time of active social interactions of sniffing, grooming, licking, mounting and crawling [s] | total time average of active social interactions [s] | Statistical significance compared to negative control (P < 0.05?) | Statistical significance compared to negative control (P < 0.05?) (listed as aripiprazole) | Statistical significance compared to positive control (P < 0.05?) | Statistical significance compared to positive control (P < 0.05?) (listed as aripiprazole) | Recovery rate compared to negative control [%] | Recovery rate compared to negative control (listed as aripiprazole) [%] | Statistical significance compared to negative control (P < 0.05?) (listed as test compound) | Statistical significance compared to positive control (P < 0.05?) (listed as test compound) | Recovery rate compared to negative control (listed as test compound) [%]
1 | O=C1CCc2ccc(OCCCCN3CCN(c4cccc(Cl)c4Cl)CC3)cc2N1 [Aripiprazole, 7-{4-[4-(2,3-dichlorophenyl)piperazin-1-yl]butoxy}-3,4-dihydroquinolin-2(1H)-one] | 57.52 ± 3.04 | 57.52 ± 3.04 | Not significant | no statistically significant difference | Significant | statistically significant difference | 23.2 | 23.2 | – | – | –
2 | C[C@]12N[C@H](Cc3ccccc31)c1ccccc12 [Dizocilpine] | 53.86 ± 2.90 | 53.86 ± 2.90 | – | – | Significant | – | 0.0 | – | – | – | –
3 | NC(=O)O[C@@H](Cn1ncnn1)c1ccccc1Cl [Test compound, Carbamic acid (R)-1-(2-chlorophenyl)-2-tetrazol-2-yl-ethyl ester] | 56.78 ± 2.19 | 56.78 ± 2.19 | Not significant | – | Significant | – | 18.5 | – | no statistically significant difference | statistically significant difference | 18.5
